In US8975285B2, “P38 MAP kinase inhibitors” (Respivert Ltd., priority 2008, dated 2015):

Legend:
[1] = system: differentiated U937 cells; experiment: MTT assay in differentiated U937 cells; assay type: cell-based, human; set-up: key: Negative: no significant toxic effect observed in MTT assay
Experimental: Differentiated U937 cells were pre-incubated with compound for 4 hrs in 5% FCS or 10% FCS for 24 hrs and 72 hr. […] After 1 hr incubation, the media were removed, 200 ul of DMSO added to each well and the plates were shaken lightly for 1 h prior to reading the absorbance at 550 nm. The percentage loss of cell viability was calculated for each well relative to vehicle (0.5% DMSO)-treatment. Consequently an apparent increase in cell viability for drug treatment relative to vehicle is tabulated as a negative percentage.

[2] = system: LPS-induced neutrophil accumulation in BALF; experiment: LPS-induced neutrophilia in the mouse: duration of action; assay type: in vivo; details: intra tracheal dosing, 12 or more hours of pre-dosing, BALF 8 h after LPS
Experimental: Non-fasted mice were dosed by the intra tracheal route with either vehicle, or the test substance at the time points (“pre-dose”) indicated with respect to the start of LPS treatment. At T=0, mice were placed into an exposure chamber and exposed to LPS. Eight hours after LPS challenge, animals were under anesthetized, the trachea cannulated and BALF extracted by infusing and withdrawing 1 ml of PBS into the lungs via a tracheal catheter. Total and differential white cell counts in the BALF samples were measured using a Neubaur haemocytometer. Cytospin smears of the BALF samples were prepared by centrifugation at 200 rpm for 5 min at room temperature and stained using a DiffQuik stain system (Dade Behring). Cells were counted using oil immersion microscopy.
Data for neutrophil numbers is reported as total and differential number (test substance relative to vehicle) of cells per mL of BALF, mean±S.E.M. (n=8).

**Q.** With `COCC(=O)Nc1cc(COc2ccc(NC(=O)Nc3cc(C(C)(C)C)nn3-c3ccc(C)cc3)c3ccccc23)ccn1` [Example 1, N-(4-((4-(3-(3-tert-Butyl-1-p-tolyl-1H-pyrazol-5-yl)ureido)naphthalen-1-yloxy)methyl)pyridin-2-yl)-2-methoxyacetamide] as the molecule, how does the “Differentiated U937 cells MTT Assay 4, 24 h (10 μg/ml)” value [1] read?
**A.** Negative^2

**Q.** And the “inhibition of LPS-induced neutrophil accumulation” value [2]?
**A.** significant inhibition
